Test results reported in patent US9636345B2, “Benzimidazole derivatives useful TRPM8 channel modulators” (Janssen Pharmaceutica NV, priority 2009, dated 2017).
Read-outs that look alike come from different tables or passages of the source. Each block holds one molecule with its values, some of them ahead of it.

Experiments:
canine TRPM8 = target: T1, canine TRPM8 (Canis lupus familiaris, UniProt Q1A7N1); test: In vitro canine TRPM8 functional assay (icilin-induced intracellular Ca2+ increase, FLIPR/FDSS); type: cell-based; settings: for inhibition at 0.2 µM / % Inh @ 0.2 μM: 0.2 μM compound, HEK293 canine TRPM8
T1 construct: expressed in transfected cells
T1 sequence (Q1A7N1 1-1104): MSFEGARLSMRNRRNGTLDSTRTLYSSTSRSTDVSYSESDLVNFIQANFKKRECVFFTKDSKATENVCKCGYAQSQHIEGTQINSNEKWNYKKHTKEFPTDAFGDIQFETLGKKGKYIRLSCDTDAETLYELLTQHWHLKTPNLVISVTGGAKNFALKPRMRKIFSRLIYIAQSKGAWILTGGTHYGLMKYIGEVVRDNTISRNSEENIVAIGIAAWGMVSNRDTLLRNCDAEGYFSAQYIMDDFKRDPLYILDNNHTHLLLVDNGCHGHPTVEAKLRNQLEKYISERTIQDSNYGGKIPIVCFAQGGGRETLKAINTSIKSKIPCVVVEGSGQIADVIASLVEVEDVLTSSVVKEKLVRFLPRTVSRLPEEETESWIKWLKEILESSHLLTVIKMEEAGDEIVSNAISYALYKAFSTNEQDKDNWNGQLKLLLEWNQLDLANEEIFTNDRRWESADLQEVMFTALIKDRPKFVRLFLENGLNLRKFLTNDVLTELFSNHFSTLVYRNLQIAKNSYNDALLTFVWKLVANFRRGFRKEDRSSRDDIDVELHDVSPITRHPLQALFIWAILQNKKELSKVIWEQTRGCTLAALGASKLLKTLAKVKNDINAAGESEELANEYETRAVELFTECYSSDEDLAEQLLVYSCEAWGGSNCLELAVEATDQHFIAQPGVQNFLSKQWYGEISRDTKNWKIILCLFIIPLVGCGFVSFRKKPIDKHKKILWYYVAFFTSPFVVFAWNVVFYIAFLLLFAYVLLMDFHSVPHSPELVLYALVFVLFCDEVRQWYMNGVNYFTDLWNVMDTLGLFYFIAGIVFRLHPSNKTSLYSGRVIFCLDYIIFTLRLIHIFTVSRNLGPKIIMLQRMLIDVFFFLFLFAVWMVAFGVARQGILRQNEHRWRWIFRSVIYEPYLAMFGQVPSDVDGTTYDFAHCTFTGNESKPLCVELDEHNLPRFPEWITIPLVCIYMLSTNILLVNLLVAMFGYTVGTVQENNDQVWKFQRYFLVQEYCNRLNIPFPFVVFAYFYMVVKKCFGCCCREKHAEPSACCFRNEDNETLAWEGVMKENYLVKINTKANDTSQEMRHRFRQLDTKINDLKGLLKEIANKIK
Procedure: The functional activity of representative compounds of the formula (I) of the present invention was quantified by measuring changes in intracellular calcium concentration using a Ca^2+-sensitive fluorescent dye. The changes in fluorescent signal were monitored by a fluorescence plate reader, either a FLIPR™ (Molecular Devices) or FDSS (Hamamatsu).
HEK293 cells stably expressing canine TRPM8 were routinely grown as monolayers in Dulbecco's minimum essential medium supplemented with 10% FBS, 2 mM L-glutamine, 100 units/mL penicillin, 100 ug/mL streptomycin and 400 μg/mL G418. Cells were maintained in 5% CO2 at 37° C. At 24 hr prior to assay, cells were seeded in black wall, clear-base poly-D-lysine coated 384-well plates (BD Biosciences, N.J., USA) at a density of 5,000 cells per well in culture medium and grown overnight in 5% CO2 at 37° C. On assay day, growth media was removed, and cells were loaded with Calcium 3 Dye (Molecular Devices) for 35 min at 37° C., under 5% CO2 and then incubated for 25 min at room temperature and atmosphere. Subsequently, cells were tested for agonist-induced increases in intracellular Ca^2+ levels using FLIPR™ or FDSS. Cells were treated with compounds of the formula (I) at varying concentrations and intracellular Ca^2+ was measured for 5 min prior to the addition of icilin to all wells to achieve a final concentration that produces approximately an 80% maximal response.
Basal FI was subtracted prior to normalizing data to percent of maximal response. Curves were generated using the average of quadruplicate wells for each data point using nonlinear regression of either sigmoidal dose response or sigmoidal dose response (variable slope). Finally, the EC50 and IC50 values were calculated with the best-fit curve determined by GraphPad Prism
Test samples were prepared by diluting a 10 mM stock solution of test compound with 100% DMSO prior to addition to assay buffer.

Male Sprague Dawley rats = test: Inhibition of icilin-induced "wet-dog" shakes in rats; type: in vivo; settings: rat; 10 mg/kg p.o.; 60 min pre-icilin; vehicle 0.5% HPMC
Procedure: Male Sprague Dawley rats ([…], Charles River Labs, n=6-9/treatment) were used to evaluate the ability of test compounds to block icilin-induced “wet-dog” shakes (WDS). The test compound was administered at 10 mg/kg in an appropriate vehicle, such as hydroxypropyl-β-cyclodextrin (HP-β-CD), methocellulose, 10% Solutol, H2O or the like, by the appropriate route (e.g., i.p or p.o), 30-60 min before icilin. Icilin was then administered in PEG-400 or 10% solutol/H2O, at 1.0 or 3.0 mg/kg, i.p. and spontaneous “wet-dog” shakes were counted 10-20 min post-icilin.
A representative compound of the present invention was tested at 10 mg/kg p.o. and 60 min pre-icilin, according to the procedure described above. Results, as listed in Table 8 below, are presented as a percent inhibition of shakes, which was calculated as [1−(test compound WDS count/vehicle WDS count)]×100.

[1] = 1 μM compound, re-test, samples diluted from 10 mM stock with 100% DMSO, Table 7
[2] = re-test, samples diluted from 10 mM stock with 100% DMSO before addition to assay buffer, Table 7, read-out: IC50

Compound: CCn1c(=NS(=O)(=O)c2ccccc2)n(Cc2ccc(C(F)(F)F)c(F)c2)c2cc(C(F)(F)F)ccc21 [Compound 37]
IC50 (canine TRPM8): 5 nM | inhibition at 0.2 µM (canine TRPM8; Table 6): 93% | % Inhibition of icilin-induced "wet-dog" shakes (Male Sprague Dawley rats): 0.6%

Compound: Cn1c(=NS(=O)(=O)c2ccccc2)n(Cc2ccc(F)c(F)c2)c2ccccc21 [Compound 7]
% Inh @ 0.2 μM (canine TRPM8; Table 6): 24%

Compound: CC(C)Cn1c(=NS(=O)(=O)c2ccccc2)n(Cc2ccc(OC(F)(F)F)cc2)c2ccccc21 [Compound 28]
inhibition at 0.2 µM (canine TRPM8; Table 6): 70% | IC50 (canine TRPM8; HEK293 cells stably expressing canine TRPM8, icilin at ~80% maximal response, Table 6, read-out: IC50): 58 nM

Compound: Cn1c(=NS(=O)(=O)c2ccccc2)n(Cc2cccc(OC(F)(F)F)c2)c2ccccc21 [Compound 5]
% Inh @ 0.2 μM (canine TRPM8; Table 6): 50%

Compound: Cn1c(=NS(=O)(=O)c2ccc(C(F)(F)F)cc2)n(Cc2ccc(C(F)(F)F)cc2)c2ccccc21 [Compound 21]
inhibition at 0.2 µM (canine TRPM8; Table 6): 8% | inhibition at 1 µM (canine TRPM8; [1]): 59% | IC50 (canine TRPM8; [2]): 588 nM

Compound: Cn1c(=NS(=O)(=O)c2ccc(Cl)cc2)n(Cc2ccc(C(F)(F)F)cc2)c2ccccc21 [Compound 19]
% Inh @ 0.2 μM (canine TRPM8; Table 6): 13%

Compound: Cn1c(=NS(=O)(=O)c2ccc(F)cc2)n(Cc2ccc(C(F)(F)F)c(F)c2)c2ccccc21 [Compound 24]
% Inh @ 0.2 μM (canine TRPM8; Table 6): 3% | % Inh @ 1 μM (canine TRPM8; [1]): 85% | IC50 (canine TRPM8; [2]): 379 nM

Compound: Cn1c(=NS(=O)(=O)c2ccc(F)cc2)n(Cc2ccc(C(F)(F)F)cc2)c2ccccc21 [Compound 16]
% Inh @ 0.2 μM (canine TRPM8; Table 6): 1% | % Inh @ 1 μM (canine TRPM8; [1]): 57%

Now from value to molecule:

% Inh @ 0.2 μM (canine TRPM8; Table 6): 67%
Compound: O=S(=O)(N=c1n(Cc2ccc(OC(F)(F)F)cc2)c2ccccc2n1CC1CC1)c1ccccc1 [Compound 48]

% Inh @ 0.2 μM (canine TRPM8; Table 6): 1% | % Inh @ 1 μM (canine TRPM8; [1]): 58%
Compound: Cn1c(=NS(=O)(=O)c2ccccc2)n(Cc2ccc(OC(F)(F)F)cc2)c2cc(F)ccc21 [Compound 46]

% Inh @ 0.2 μM (canine TRPM8; Table 6): 25%
Compound: Cn1c(=NS(=O)(=O)c2ccccc2)n(Cc2ccc(OC(F)(F)F)cc2)c2ccc(C(F)(F)F)cc21 [Compound 58]

% Inh @ 0.2 μM (canine TRPM8; Table 6): 61%
Compound: O=S(=O)(N=c1n2c3c(cccc3n1-c1ccc(OC(F)(F)F)cc1)OCC2)c1ccccc1 [Compound 64]

% Inh @ 0.2 μM (canine TRPM8; Table 6): 5% | % Inh @ 1 μM (canine TRPM8; [1]): 48%
Compound: Cc1cc2c(cc1C)n(Cc1ccc(OC(F)(F)F)cc1)c(=NS(=O)(=O)c1ccccc1)n2C [Compound 60]

% Inh @ 0.2 μM (canine TRPM8; Table 6): 66%
Compound: CC(C)n1c(=NS(=O)(=O)c2ccccc2)n(Cc2ccc(OC(F)(F)F)cc2)c2cc(Cl)ccc21 [Compound 45]
